Values after ≈ are worked out from the molar mass of the structure shown.
Tests used:
[1] = test system: Candida albicans TIMM 1623; test: Antifungal activity test (in vivo), mouse systemic infection model; parameters: survival rate: unit not given here; settings: for T/C (%): survival time of administration group / control group x100
Procedure: With respect to compounds I-1, I-3 and I-6 obtained in Examples 1, 3 and 6 respectively, therapeutic effects at the time of subcutaneous administration of compounds I-1, I-3 and I-6 on a mouse systemic infection model by Candida albicans TIMM 1623 were tested.
The test was carried out using 5 animals for each of the drug administration groups and Negative control group (sterile physiological saline administration group).
Each of compounds I-1, I-3 and I-6 was dissolved in and diluted with dimethyl sulfoxide (DMSO; Wako Pure Chemical Industries, Ltd.) and then prepared into a predetermined concentration by diluting with sterile physiological saline.
As the control experiment, Fluconazole (FLCZ, Flanos intravenous drip solution 100 mg; TOYAMA CHEMICAL CO, LTD.) diluted to a predetermined concentration with sterile physiological saline was used.
On the next day of the receipt of animals, body weights of mice were measured and CP (crude protein) was intraperitoneally administered at a dose of 200 mg/kg based on the individual body weight, and then they were reared for 3 days.
Cells of C. albicans TIMM 1623 cultured overnight at 35° C. on SDA (Sabouraud dextrose agar; Eiken Chemical Co., Ltd.) plate medium were suspended in sterile physiological saline and used as the Stock solution, and a portion thereof was diluted with 10% formalin (Wako Pure Chemical Industries, Ltd.). The number of cells in the diluted liquid was counted under a biological microscope using a hemocytometer, and then an inoculum was prepared by diluting the stock solution with sterile physiological saline (about 1.5×10^5 cells/ml). By inoculating 0.2 ml of this cell suspension through caudal vein, infection was induced. In this connection, the number of viable cells in the inoculum was verified by spreading the cell suspension optionally diluted with sterile physiological saline on an SDA plate medium and then culturing at 35° C. Each of the substances to be tested, control substance or sterile physiological saline was subcutaneously administered after 2 hours of the infection and for 3 days starting on the next day of infection once a day, a total of 4 times. After measuring individual body weight on the next day of infection, CP was again administered intraperitoneally at a dose of 100 mg/kg. The number of survived mice was observed and recorded for 14 days starting on the next day of infection.
The results were shown in Table 3 below and FIGS. 1A to 1D. In the table, the administration dose of the compounds of the present invention and the comparative compound represents a mg amount per 1 kg of a mouse weight (mg/kg).
Significant deference was tested, by 5% for both sides of the levels of significance, in accordance with the Kaplan-Meier method Logrank test (comparison of multiple groups), on the survival time distribution of each of the substances to be tested and control substance administration groups and sterile physiological saline administration group. SAS release 8.2 (SAS Institute Japan) was used in the Kaplan-Meier method Logrank test. (T/C(%)=[survival time of administration group (integrated value)/survival time of control group (integrated value)]×100)

[2] = test system: Candida albicans ATCC 10231; test: Antifungal activity test (in vitro), MIC; format: cell-based; settings: ATCC10231
Procedure: Minimum inhibitory concentration (MIC) of each of the compounds obtained in Examples 1 to 12 was measured for respective fungi at MOS Pharm Service, by the methods described in Antimicrobial Agents and Chemotherapy, vol. 3, pp. 40-48 (1973), Antimicrobial Agents and Chemotherapy, vol. 33, pp. 215-222 (1989) and Antimicrobial Agents and Chemotherapy, vol. 38, pp. 2362-2368 (1994). The measuring conditions are shown in the following. In this case, Voriconazol was used as a comparative compound. Candida albicans ATCC 10231 and ATCC 44858; Cultured at 37° C. for 20 hours using fluid Sabouraud medium, and this was used as a cell suspension. Each of the compounds of the invention was adjusted to a concentration of 1% by weight using dimethyl sulfoxide (DMSO) and a medium similar to the respective medium used in the above-mentioned fungal culture, having a final concentration of from 0.001 to 100 μg/ml, was prepared. Each of the inoculation cell suspensions prepared by the above-mentioned methods was inoculated onto this agar plate. […] In this connection, Voriconazol was used as the comparative compound C-1.

Question: `C[C@@H](N1CCC(c2ccccn2)CC1)[C@](O)(Cn1cncn1)c1ccc(F)cc1F` [I-1, (2R,3R)-2-(2,4-difluorophenyl)-3-(4-pyridin-2-ylpiperidin-1-yl)-1-(1,2,4-triazol-1-yl)butan-2-ol] was tested. Which survival rate ([1]; 0.1 mg/kg s.c., day 0) did it give?
Answer: The survival rate was 100.

Question: And the survival rate ([1]; 0.1 mg/kg s.c., day 1)?
Answer: Its survival rate is 100.

Question: What about the survival rate ([1]; 0.1 mg/kg s.c., day 2) of the same compound?
Answer: Its survival rate is 100.

Question: And the survival rate ([1]; 0.1 mg/kg s.c., day 3)?
Answer: Its survival rate is 60.

Question: And the survival rate ([1]; 0.1 mg/kg s.c., day 4)?
Answer: The survival rate was 60.

Question: And the survival rate ([1]; 0.1 mg/kg s.c., day 5)?
Answer: The survival rate was 60.

Question: What about the survival rate ([1]; 0.1 mg/kg s.c., day 6) of the same compound?
Answer: The survival rate was 60.

Question: What about the survival rate ([1]; 0.1 mg/kg s.c., day 7) of the same compound?
Answer: The survival rate was 20.

Question: What about the survival rate ([1]; 0.1 mg/kg s.c., day 8) of the same compound?
Answer: Its survival rate is 20.

Question: And the survival rate ([1]; 0.1 mg/kg s.c., day 9)?
Answer: The survival rate was 20.

Question: What about the survival rate ([1]; 0.1 mg/kg s.c., day 10) of the same compound?
Answer: Its survival rate is 20.

Question: And the survival rate ([1]; 0.1 mg/kg s.c., day 11)?
Answer: Its survival rate is 20.

Question: What about the survival rate ([1]; 0.1 mg/kg s.c., day 12) of the same compound?
Answer: The survival rate was 0.

Question: What about the “T/C (%)” value ([1]; 0.1 mg/kg s.c.) of the same compound?
Answer: Its value is 103%.

Question: What about the survival rate ([1]; 1 mg/kg s.c., day 0) of the same compound?
Answer: Its survival rate is 100.

Question: What about the survival rate ([1]; 1 mg/kg s.c., day 1) of the same compound?
Answer: The survival rate was 100.

Question: What about the survival rate ([1]; 1 mg/kg s.c., day 2) of the same compound?
Answer: Its survival rate is 100.

Question: What about the survival rate ([1]; 1 mg/kg s.c., day 3) of the same compound?
Answer: Its survival rate is 100.

Question: And the survival rate ([1]; 1 mg/kg s.c., day 4)?
Answer: The survival rate was 100.

Question: And the survival rate ([1]; 1 mg/kg s.c., day 5)?
Answer: The survival rate was 80.

Question: What about the survival rate ([1]; 1 mg/kg s.c., day 6) of the same compound?
Answer: The survival rate was 80.

Question: And the survival rate ([1]; 1 mg/kg s.c., day 7)?
Answer: Its survival rate is 60.

Question: And the survival rate ([1]; 1 mg/kg s.c., day 8)?
Answer: Its survival rate is 60.

Question: And the survival rate ([1]; 1 mg/kg s.c., day 9)?
Answer: The survival rate was 60.

Question: What about the survival rate ([1]; 1 mg/kg s.c., day 10) of the same compound?
Answer: The survival rate was 40.

Question: And the survival rate ([1]; 1 mg/kg s.c., day 11)?
Answer: The survival rate was 40.

Question: And the survival rate ([1]; 1 mg/kg s.c., day 12)?
Answer: The survival rate was 40.

Question: What about the survival rate ([1]; 1 mg/kg s.c., day 13) of the same compound?
Answer: Its survival rate is 20.

Question: What about the survival rate ([1]; 1 mg/kg s.c., day 14) of the same compound?
Answer: Its survival rate is 20.

Question: And the “T/C (%)” value ([1]; 1 mg/kg s.c.)?
Answer: The value was 161%.

Question: And the survival rate ([1]; 10 mg/kg s.c., day 0)?
Answer: The survival rate was 100.

Question: And the survival rate ([1]; 10 mg/kg s.c., day 1)?
Answer: Its survival rate is 100.

Question: And the survival rate ([1]; 10 mg/kg s.c., day 2)?
Answer: The survival rate was 100.

Question: And the survival rate ([1]; 10 mg/kg s.c., day 3)?
Answer: The survival rate was 60.

Question: What about the survival rate ([1]; 10 mg/kg s.c., day 4) of the same compound?
Answer: The survival rate was 60.

Question: What about the survival rate ([1]; 10 mg/kg s.c., day 5) of the same compound?
Answer: The survival rate was 60.

Question: And the survival rate ([1]; 10 mg/kg s.c., day 6)?
Answer: Its survival rate is 60.

Question: What about the survival rate ([1]; 10 mg/kg s.c., day 7) of the same compound?
Answer: Its survival rate is 40.

Question: What about the survival rate ([1]; 10 mg/kg s.c., day 8) of the same compound?
Answer: The survival rate was 40.

Question: What about the survival rate ([1]; 10 mg/kg s.c., day 9) of the same compound?
Answer: Its survival rate is 40.

Question: And the survival rate ([1]; 10 mg/kg s.c., day 10)?
Answer: The survival rate was 40.

Question: What about the survival rate ([1]; 10 mg/kg s.c., day 11) of the same compound?
Answer: The survival rate was 40.

Question: And the survival rate ([1]; 10 mg/kg s.c., day 12)?
Answer: Its survival rate is 40.

Question: What about the survival rate ([1]; 10 mg/kg s.c., day 13) of the same compound?
Answer: Its survival rate is 20.

Question: And the survival rate ([1]; 10 mg/kg s.c., day 14)?
Answer: The survival rate was 20.

Question: And the “T/C (%)” value ([1]; 10 mg/kg s.c.)?
Answer: Its value is 132%.

Question: What about the MIC [2] of the same compound?
Answer: The MIC was 0.3 µg/mL (≈ 0.726 µM).

From patent publication US7973056B2, “Triazole derivative or salt thereof” (Fujifilm Finechemicals Co., Ltd, priority 2008, dated 2011)
